Assay results from patent publication US20210009914A1, “NOVEL APPLICATIONS OF PULSED ELECTRIC FIELD AND E-BEAM TECHNOLOGY” (KEMIN INDUSTRIES, INC., priority 2019, published 2021).

Key:
Total Enterobacteriaceae [1] = assay: Total Enterobacteriaceae count in naturally contaminated broiler feed, products before PEF at reduced additional water (Example 2); format: cell-based; conditions: 3 kg/T before PEF 5 kV/cm, medium 120 kJ/kg; for Log reduction: vs control of same water level
Procedure: (§1) Feed materials. Pig feed, naturally contaminated with Enterobacteriaceae, was obtained from Feed Design Lab (the Netherlands). The naturally contaminated pig feed, not treated with an antimicrobial product, was diluted with mash broiler feed obtained from AVEVE until the required contamination level was obtained (Enterobacteriaceae contamination of 4 log cfu/g). After this dilution, the mash feed was mixed intensively to ensure a homogeneous contamination.
(§2) Application of antimicrobial products. The products were sprayed on a thin layer of the feed (portions of 500 g) by use of a nebulizer. The product Sal CURB® Ba Liquid (lot number: 191111883) was dosed at 6 kg/T. Formic acid 85% (RM00672, lot 20000200403), the main component of Sal CURB Ba Liquid (i.e. 50% formic acid) was dosed at 3 kg/T and 6 kg/T. Sal CURB Ba Liquid also contains a mixture of different surfactants. After treatment, the samples were sent to ELEA GmbH (Quakenbrück, Germany) for PEF treatments.
PEF treatments. PEF experiments were carried out using the PEFPilot™ System (220V, 50 Hz) at ELEA GmbH (Quakenbrück, Germany) at room temperature. The PEF treatments were performed at 8 days after application of the antimicrobial products. The feed samples were stored at room temperature (20-25° C.) before PEF treatment. Each PEF treatment consisted of at least two replicates. Quantities of 50, 20 and 15 percent additional water (tap-water at room temperature), were added to the feed to prevent the formation of air bubbles, which increase the chance for a dielectric breakdown and arching. Before PEF treatment, the treatment chamber was filled with the feed, the feed was leveled and pressed using a plastic stick. […] Exponential decay pulses with width of 40 microseconds and frequency of 2 Hz were applied. An electric field strength of 5 kV/cm and a specific energetic level of 120 kJ/kg (600 pulses) was applied. The treatment chamber was rinsed after each treatment and pre-cooled in ice-water before new feed samples were added.
Test setups. The antimicrobial products were always applied on the feed before the PEF treatments. The different quantities of added tap-water were mixed homogeneously in the feed just before the PEF treatments. After the treatments, all feed samples were stored at room temperature.
(§3) Determination of total Enterobacteriacea level. The total Enterobacteriaceae level (TEC) of the feed samples not treated and treated with the antimicrobial products was determined at 10 days after product treatment. The TEC of the PEF treated samples was determined at 48 h after PEF treatment. Three suspensions of each feed sample were prepared by mixing 10 g of the sample with 90 g of saline and by homogenizing the samples for 60 seconds in a Stomacher. RAPID' Enterobacteriaceae plates (Bio-Rad, 3564004) were inoculated using a spiral plate counter (Eddy Jet, IUL Instruments). The plates were incubated overnight at 37° C. for 24 h. After incubation, the colonies were counted manually, as explained in the Internal Instruction. To obtain accurate results, the minimum number of colonies counted per plate was specified as 10 (a lower number gives less statistically significant results). Values below this limit, at the lowest sample dilution (100 cfu/g), were reported to a value equal to half of this limit (50 cfu/g). The colony-forming units were log-transformed prior to the statistical analyses. The microbiological data were analyzed using the Statgraphics Centurion XVI software (Statpoint Technologies, Inc., Virginia, USA). All data were subjected to one-way ANOVA and differences were separated using the least significant differences procedure. All statements of significance were based on a P-value less than 0.05, unless otherwise specified.

Total Enterobacteriaceae [2] = assay: Total Enterobacteriaceae count in naturally contaminated broiler feed, antimicrobial products with/without PEF (Example 1); format: cell-based
Procedure: as §1
PEF treatments. PEF experiments were carried out using the PEFPilot™ System (220V, 50 Hz) at ELEA GmbH (Quakenbrück, Germany) at room temperature. The feed was stored at room temperature (20-25° C.) before treatment. An amount of 50 percent additional water (tap-water at room temperature), was added to the feed to prevent the formation of air bubbles, which increase the chance for a dielectric breakdown and arching. Before PEF treatment, the treatment chamber was filled with the feed, the feed was leveled and pressed using a plastic stick. […] Exponential decay pulses with width of 40 microseconds and frequency of 2 Hz were applied. An electric field strength of 5 kV/cm and specific energies of 12 (60 pulses), 120 (600 pulses) and 168 kJ/kg (840 pulses) were applied. The treatment chamber was rinsed after each treatment and pre-cooled in ice-water before new feed samples were added. Each PEF treatment consisted of at least two replicates. The temperature of the feed was measured just after the PEF treatment.
as §2, with “300” for “500”, “1911110883)” for “191111883)”, “surfactants.” for “surfactants. After treatment, the samples were sent to ELEA GmbH (Quakenbrück, Germany) for PEF treatments.”
Test setups. The effect of the application of the antimicrobials alone on the naturally contaminated feed was tested in a separate experiment. In a first series of PEF experiments (first trial), the antimicrobial products were sprayed on the feed just after applying the PEF treatments, while for the second series of experiments (second trial) the antimicrobial products were applied on the feed before the PEF treatments.
as §3, with “products and/or PEF” for “products”, “24” for “10 days after product treatment. The TEC of the PEF treated samples was determined at 48”, “PEF/product treatments.” for “PEF treatment.”, “manually.” for “manually, as explained in the Internal Instruction.”

O=CO [Formic acid]
Log (cfu/g) (Total Enterobacteriaceae [1]; 15% additional water): 2.83 c Log (cfu/g)
Log reduction (Total Enterobacteriaceae [1]; 15% additional water): 1.44 log
Log reduction (Total Enterobacteriaceae [1]; 15% additional water, listed as formic acid): 1.4 log
Log (cfu/g) (Total Enterobacteriaceae [1]; 20% additional water): 2.30 d Log (cfu/g)
Log reduction (Total Enterobacteriaceae [1]; 20% additional water): 2.20 log
Log (cfu/g) (Total Enterobacteriaceae [1]; 50% additional water): 2.82 c Log (cfu/g)
Log reduction (Total Enterobacteriaceae [1]; 50% additional water): 1.60 log
Log (cfu/g) (Total Enterobacteriaceae [2]; 3 kg/T applied after PEF 5 kV/cm, high intensity 168 kJ/kg, 50% additional water): 3.34 h Log (cfu/g)
Log reduction (Total Enterobacteriaceae [2]; 3 kg/T applied after PEF 5 kV/cm, high intensity 168 kJ/kg, vs no-treatment control): 0.92 log
Log (cfu/g) (Total Enterobacteriaceae [2]; 3 kg/T applied after PEF 5 kV/cm, low intensity 12 kJ/kg, 50% additional water): 3.94 de Log (cfu/g)
Log reduction (Total Enterobacteriaceae [2]; 3 kg/T applied after PEF 5 kV/cm, low intensity 12 kJ/kg, vs no-treatment control): 0.32 log
Log (cfu/g) (Total Enterobacteriaceae [2]; 3 kg/T applied after PEF 5 kV/cm, medium intensity 120 kJ/kg, 50% additional water): 4.10 ad Log (cfu/g)
Log reduction (Total Enterobacteriaceae [2]; 3 kg/T applied after PEF 5 kV/cm, medium intensity 120 kJ/kg, vs no-treatment control): 0.16 log
Log (cfu/g) (Total Enterobacteriaceae [2]; 3 kg/T applied before PEF 5 kV/cm, high intensity 168 kJ/kg, 50% additional water): 2.95 d Log (cfu/g)
Log reduction (Total Enterobacteriaceae [2]; 3 kg/T applied before PEF 5 kV/cm, high intensity 168 kJ/kg, vs no-treatment control): 2.14 log
Log (cfu/g) (Total Enterobacteriaceae [2]; 3 kg/T applied before PEF 5 kV/cm, medium intensity 120 kJ/kg, 50% additional water): 3.58 c Log (cfu/g)
Log reduction (Total Enterobacteriaceae [2]; 3 kg/T applied before PEF 5 kV/cm, medium intensity 120 kJ/kg, vs no-treatment control): 1.51 log
Log (cfu/g) (Total Enterobacteriaceae [2]; 3 kg/T, no PEF, 50% additional water (Table 5, trial 2)): 4.15 b Log (cfu/g)
Log reduction (Total Enterobacteriaceae [2]; 3 kg/T, no PEF, vs no-treatment control (Table 5, trial 2)): 0.94 log
Log (cfu/g) (Total Enterobacteriaceae [2]; 3 kg/T, product alone, no PEF (Table 3)): 3.80 ab Log (cfu/g)
Log reduction (Total Enterobacteriaceae [2]; 3 kg/T, product alone, no PEF, vs untreated control (Table 3)): 0.37 log
Log (cfu/g) (Total Enterobacteriaceae [2]; 6 kg/T applied after PEF 5 kV/cm, high intensity 168 kJ/kg, 50% additional water): 3.06 i Log (cfu/g)
Log reduction (Total Enterobacteriaceae [2]; 6 kg/T applied after PEF 5 kV/cm, high intensity 168 kJ/kg, vs no-treatment control): 1.20 log
Log (cfu/g) (Total Enterobacteriaceae [2]; 6 kg/T applied after PEF 5 kV/cm, low intensity 12 kJ/kg, 50% additional water): 4.03 ade Log (cfu/g)
Log reduction (Total Enterobacteriaceae [2]; 6 kg/T applied after PEF 5 kV/cm, low intensity 12 kJ/kg, vs no-treatment control): 0.23 log
Log (cfu/g) (Total Enterobacteriaceae [2]; 6 kg/T applied after PEF 5 kV/cm, medium intensity 120 kJ/kg, 50% additional water): 3.71 fg Log (cfu/g)
Log reduction (Total Enterobacteriaceae [2]; 6 kg/T applied after PEF 5 kV/cm, medium intensity 120 kJ/kg, vs no-treatment control): 0.55 log
Log (cfu/g) (Total Enterobacteriaceae [2]; 6 kg/T applied before PEF 5 kV/cm, high intensity 168 kJ/kg, 50% additional water): 1.70 f^ Log (cfu/g)
Log reduction (Total Enterobacteriaceae [2]; 6 kg/T applied before PEF 5 kV/cm, high intensity 168 kJ/kg, vs no-treatment control): 3.39 log
Log (cfu/g) (Total Enterobacteriaceae [2]; 6 kg/T applied before PEF 5 kV/cm, medium intensity 120 kJ/kg, 50% additional water): 2.25 e Log (cfu/g)
Log reduction (Total Enterobacteriaceae [2]; 6 kg/T applied before PEF 5 kV/cm, medium intensity 120 kJ/kg, vs no-treatment control): 2.84 log
Log (cfu/g) (Total Enterobacteriaceae [2]; 6 kg/T, no PEF, 50% additional water (Table 5, trial 2)): 3.55 c Log (cfu/g)
Log reduction (Total Enterobacteriaceae [2]; 6 kg/T, no PEF, vs no-treatment control (Table 5, trial 2)): 1.54 log
Log (cfu/g) (Total Enterobacteriaceae [2]; 6 kg/T, product alone, no PEF (Table 3)): 3.33 b Log (cfu/g)
Log reduction (Total Enterobacteriaceae [2]; 6 kg/T, product alone, no PEF, vs untreated control (Table 3)): 0.84 log
